# Experimental data as given in publication PMC11284788, “NN1213 – A Potent, Long-Acting, and Selective Analog of Human Amylin” (Journal of Medicinal Chemistry, 2024).
# Key:
# in vivo [1] = settings: male, Sprague-Dawley, rat, iv
# Protocol: (§1) Blood samples were collected at fixed time points postdose to determine full PK profiles. Plasma samples were analyzed by ELISA. Plasma concentration–time profiles were analyzed by noncompartmental analysis.
# (§2) Pharmacokinetic Evaluation. Rats: Male Sprague-Dawley rats (Taconic, Europe; body weight
# (§3) approximately 400 g) were group-housed under controlled temperature conditions (20 °C ± 2 °C).
# (§4) Blood was collected from the sublingual vein and rats were acclimated to handling on three separate
# occasions prior to blood collection.
# (§5) the tail vein of five rats. Sc injections were performed in the neck of another group of five rats. The
# dosing volume was 2 mL/kg.
# (§6) collected into test tubes containing EDTA for stabilization and kept on ice until centrifugation. Each
# (§7) blood sample was 100 µL. Plasma was separated from whole blood by centrifugation and was stored at
# –20 °C or lower until analysis.
# cAMY3R = assay: Whole-cell competition binding, cAMY3R; settings: IC50 for the CTR divided by that of the AMYR, canine receptors
# hAMY3R = target: T1, hAMY3R (Homo sapiens, UniProt O60896+P30988); assay: Whole-cell competition binding, hAMY3R; design: expressed in transfected cells; host or cells: BHK tk-ts 13, transient co-transfection; whole cells for the species-specific assays; settings: IC50 for the CTR divided by that of the AMYR, human receptors
# T1 sequence (P30988 25-474): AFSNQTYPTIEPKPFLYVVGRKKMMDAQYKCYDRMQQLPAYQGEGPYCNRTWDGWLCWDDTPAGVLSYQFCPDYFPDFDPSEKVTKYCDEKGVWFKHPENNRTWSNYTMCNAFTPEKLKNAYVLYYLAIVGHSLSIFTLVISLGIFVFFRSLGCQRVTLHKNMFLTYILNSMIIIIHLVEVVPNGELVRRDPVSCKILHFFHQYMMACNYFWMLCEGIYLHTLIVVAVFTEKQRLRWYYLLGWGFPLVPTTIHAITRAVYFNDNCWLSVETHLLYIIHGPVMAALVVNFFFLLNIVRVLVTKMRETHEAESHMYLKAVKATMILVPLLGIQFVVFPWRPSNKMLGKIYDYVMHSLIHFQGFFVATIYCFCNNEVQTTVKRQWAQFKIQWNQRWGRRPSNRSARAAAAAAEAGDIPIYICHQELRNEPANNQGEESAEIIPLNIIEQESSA
# T1 sequence (O60896 24-148 partner): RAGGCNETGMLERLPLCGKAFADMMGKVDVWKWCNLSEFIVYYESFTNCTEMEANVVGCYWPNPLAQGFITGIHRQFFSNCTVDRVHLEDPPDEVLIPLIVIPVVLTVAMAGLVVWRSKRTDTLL
# in vivo [2] = settings: female, New Zealand white, rabbit, iv
# Protocol: as §1
# Rabbits: Female rabbits (New Zealand white, Charles River; 21–23 weeks; 2.5–3.5 kg) were group-
# housed (10 per cage) in normal day–night rhythm from arrival and had free access to food and water.
# The rabbits were treated against coccidiosis during their 5-week acclimation period upon arrival. Iv
# dosing was performed as a bolus injection into an ear vein with a dosing volume of 0.1 mL/kg. The
# dosing solution was at room temperature before injection. Venous blood sampling was performed
# directly through puncture of an ear vein using a needle. A full plasma concentration–time profile was
# obtained from each animal.
# Blood (300 µL) was collected directly into test
# tubes containing EDTA buffer (Microvette CB 300 K2E). Samples were kept on wet ice until
# centrifugation (10 min, 4 °C, 3000 rpm). Plasma (100 µL) was transferred immediately to Micronic
# tubes and kept at –20 °C until analysis.
# Plasma analysis: Plasma samples were analyzed by a commercially available kit (Millipore, Human
# Amylin ELISA, cat. #EZHA-52-K). […]
# was applied and the plate was read on a fluorescent reader with an excitation/emission wavelength of
# samples. The lower limit of quantification (LLOQ) was 100–500 pM.
# rAMY1R = target: T2, rAMY1R (Rattus norvegicus, UniProt P32214+Q9JJ74); assay: Species-specific cAMP assay, rAMY1R; settings: ratio of cAMP EC50 values, rat receptors
# T2 sequence (P32214 25-516): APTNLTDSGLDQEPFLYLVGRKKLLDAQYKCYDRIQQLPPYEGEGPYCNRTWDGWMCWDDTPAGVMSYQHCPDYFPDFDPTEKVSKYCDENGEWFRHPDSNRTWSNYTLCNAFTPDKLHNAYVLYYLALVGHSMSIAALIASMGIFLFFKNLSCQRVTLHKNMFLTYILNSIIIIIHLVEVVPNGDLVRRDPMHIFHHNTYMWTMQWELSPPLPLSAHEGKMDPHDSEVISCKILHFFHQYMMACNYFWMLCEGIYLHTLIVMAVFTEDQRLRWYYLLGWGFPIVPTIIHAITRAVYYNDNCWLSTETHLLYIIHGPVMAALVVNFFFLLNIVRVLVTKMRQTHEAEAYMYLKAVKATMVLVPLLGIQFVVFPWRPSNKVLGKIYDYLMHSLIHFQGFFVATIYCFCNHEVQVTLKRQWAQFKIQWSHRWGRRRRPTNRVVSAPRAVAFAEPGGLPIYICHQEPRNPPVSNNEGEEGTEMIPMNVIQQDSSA
# T2 sequence (Q9JJ74 27-148 partner): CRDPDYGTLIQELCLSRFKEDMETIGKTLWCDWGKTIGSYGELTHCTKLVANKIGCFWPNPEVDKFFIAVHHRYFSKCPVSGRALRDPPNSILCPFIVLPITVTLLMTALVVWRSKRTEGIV
# cCTR = assay: Species-specific cAMP assay, cCTR; settings: cAMP HTRF, transiently transfected BHK cells, 30 min room temperature, five experiments
# Pharmacokinetics in rats = settings: male, Sprague-Dawley, rat, plasma, sc, 5 nmol/kg
# Protocol: as §1, §2, §3, §4
# occasions prior to blood collection.
# as §5
# dosing volume was 2 mL/kg.
# as §6, §7
# –20 °C or lower until analysis.
# mAMY3R = target: T3, mAMY3R (Mus musculus, UniProt Q60755+Q9WUP1); assay: Mouse receptor cAMP HTRF assay (BacMam, HeLa), mAMY3R; settings: ratio of cAMP EC50 values, mouse receptors
# T3 sequence (Q60755 42-496 isoform Q60755-2 limits assumed): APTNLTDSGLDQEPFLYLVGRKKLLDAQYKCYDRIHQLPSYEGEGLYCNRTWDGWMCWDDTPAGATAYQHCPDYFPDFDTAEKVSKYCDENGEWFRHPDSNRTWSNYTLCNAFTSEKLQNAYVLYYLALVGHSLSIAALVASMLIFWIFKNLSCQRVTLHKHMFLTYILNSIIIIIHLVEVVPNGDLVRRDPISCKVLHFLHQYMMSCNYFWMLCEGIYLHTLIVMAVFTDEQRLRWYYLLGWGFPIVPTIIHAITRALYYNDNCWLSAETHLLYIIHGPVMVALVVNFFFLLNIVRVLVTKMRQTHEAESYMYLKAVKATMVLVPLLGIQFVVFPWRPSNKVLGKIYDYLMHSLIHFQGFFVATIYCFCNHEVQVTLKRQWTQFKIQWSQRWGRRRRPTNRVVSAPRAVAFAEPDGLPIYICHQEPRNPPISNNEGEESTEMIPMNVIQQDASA
# T3 sequence (Q9WUP1 24-147 partner limits assumed): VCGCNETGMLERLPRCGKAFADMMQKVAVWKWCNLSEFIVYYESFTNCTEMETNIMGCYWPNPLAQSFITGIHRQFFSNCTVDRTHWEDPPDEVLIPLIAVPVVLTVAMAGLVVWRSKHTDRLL
# Protocol: Mouse Receptors (Functional Assay Only). Cell culture: HeLa cells were cultured in an incubator at 37 °C and 5% CO2, in cell culture medium (DMEM with 10% [v/v] FBS, 1% [w/w] penicillin/streptomycin).
# Cell seeding in T75 flasks (day 1): The day before transfection of the cells, 2 x 10^6 HeLa cells were seeded in three T75 flasks and incubated overnight. Media was removed from 1–2 T175 flasks and cells were washed once with Dulbecco PBS (with Mg2+ and Ca2+). Cells were detached with 2 mL TrypLE Express for 5 min in an incubator. Five mL pre-warmed media was added to each T75 flask and mixed with the cell suspension. Cells were counted in 100 µL of this suspension. The cell suspension was centrifuged at 1200 rpm for 4 min and the supernatant was discarded. The cells were re-suspended in media and 2 x 10^6 cells were seeded in approximately 15 mL in each of the three T75 flasks. The flasks were incubated overnight.
# with 20 µL poly-d-lysin/well for 2–3 h at 37 °C. The plates were washed twice with PBS and allowed
# Transfection of cells (day 2): Reagents were acclimated to room temperature for 30 min. Media was
# removed from the T75 flasks, and cells were washed once with PBS (with Mg2+ and Ca2+). Cells were
# Seeding of transfected cells in assay plates (day 2): Following the 3-h transduction, T75 flasks were
# washed once with PBS (with Mg2+ and Ca2+). […]
# mL pre-warmed media and counted.
# cAMY1R = assay: Whole-cell competition binding, cAMY1R; settings: IC50 for the CTR divided by that of the AMYR, canine receptors
structure (smiles),measurement,setting,value
CC[C@H](C)[C@H](NC(=O)[C@H](C)NC(=O)CNC(=O)[C@H](Cc1ccccc1)NC(=O)[C@H](CC(N)=O)NC(=O)[C@@H]1CCCN1C(=O)[C@H](CO)NC(=O)[C@H](CO)NC(=O)[C@H](Cc1c[nH]cn1)NC(=O)[C@H](CCCNC(=N)N)NC(=O)[C@H](CC(C)C)NC(=O)[C@H](Cc1ccccc1)NC(=O)[C@H](CC(=O)O)NC(=O)[C@H](C)NC(=O)[C@H](CC(C)C)NC(=O)[C@H](CCCNC(=N)N)NC(=O)[C@H](CCC(N)=O)NC(=O)[C@@H](NC(=O)[C@H](C)NC(=O)[C@@H]1CSSC[C@H](NC(=O)[C@@H](N)CCCCNC(=O)CC[C@H](NC(=O)CC[C@H](NC(=O)CCCCCCCCCCCCCCCCCCC(=O)O)C(=O)O)C(=O)O)C(=O)N[C@@H](CC(N)=O)C(=O)N[C@@H]([C@@H](C)O)C(=O)N[C@@H](C)C(=O)N[C@@H]([C@@H](C)O)C(=O)N1)[C@@H](C)O)C(=O)N1CCC[C@H]1C(=O)N[C@@H](CO)C(=O)N[C@@H](CO)C(=O)N[C@H](C(=O)N[C@@H](CC(N)=O)C(=O)N[C@H](C(=O)NCC(=O)N[C@@H](CO)C(=O)N[C@@H](CCCNC(=N)N)C(=O)N[C@H](C(=O)N[C@@H](Cc1ccc(O)cc1)C(N)=O)[C@@H](C)O)C(C)C)[C@@H](C)O [NN1213],half-life,in vivo [1],24 h
same,"Ratio CTR/AMY3R (canine, binding)",cAMY3R,40
same,"Ratio CTR/AMY3R (human, binding)",hAMY3R,67
same,half-life,in vivo [2],49 h
same,"Ratio CTR/AMY1R (rat, functional)",rAMY1R,336
same,cCTR pEC50,cCTR,9.39
same,bioavailability,Pharmacokinetics in rats,~40%
same,"Ratio CTR/AMY3R (mouse, functional)",mAMY3R,24
same,"Ratio CTR/AMY1R (canine, binding)",cAMY1R,73
